We go through 52 compounds from patent publication US20020026053A1, “Novel 3-(substituted) -2- indolinones compounds and use thereof as inhibitors of protein kinase activity” (priority 1997, published 2002).

The target of this assay is T1, EGFR (Homo sapiens, UniProt P00533).
T1 construct: endogenous in cells; host or cells: A431 cells (lysate, captured with SUMO1 anti-EGFR antibody)
T1 sequence (P00533 25-1210): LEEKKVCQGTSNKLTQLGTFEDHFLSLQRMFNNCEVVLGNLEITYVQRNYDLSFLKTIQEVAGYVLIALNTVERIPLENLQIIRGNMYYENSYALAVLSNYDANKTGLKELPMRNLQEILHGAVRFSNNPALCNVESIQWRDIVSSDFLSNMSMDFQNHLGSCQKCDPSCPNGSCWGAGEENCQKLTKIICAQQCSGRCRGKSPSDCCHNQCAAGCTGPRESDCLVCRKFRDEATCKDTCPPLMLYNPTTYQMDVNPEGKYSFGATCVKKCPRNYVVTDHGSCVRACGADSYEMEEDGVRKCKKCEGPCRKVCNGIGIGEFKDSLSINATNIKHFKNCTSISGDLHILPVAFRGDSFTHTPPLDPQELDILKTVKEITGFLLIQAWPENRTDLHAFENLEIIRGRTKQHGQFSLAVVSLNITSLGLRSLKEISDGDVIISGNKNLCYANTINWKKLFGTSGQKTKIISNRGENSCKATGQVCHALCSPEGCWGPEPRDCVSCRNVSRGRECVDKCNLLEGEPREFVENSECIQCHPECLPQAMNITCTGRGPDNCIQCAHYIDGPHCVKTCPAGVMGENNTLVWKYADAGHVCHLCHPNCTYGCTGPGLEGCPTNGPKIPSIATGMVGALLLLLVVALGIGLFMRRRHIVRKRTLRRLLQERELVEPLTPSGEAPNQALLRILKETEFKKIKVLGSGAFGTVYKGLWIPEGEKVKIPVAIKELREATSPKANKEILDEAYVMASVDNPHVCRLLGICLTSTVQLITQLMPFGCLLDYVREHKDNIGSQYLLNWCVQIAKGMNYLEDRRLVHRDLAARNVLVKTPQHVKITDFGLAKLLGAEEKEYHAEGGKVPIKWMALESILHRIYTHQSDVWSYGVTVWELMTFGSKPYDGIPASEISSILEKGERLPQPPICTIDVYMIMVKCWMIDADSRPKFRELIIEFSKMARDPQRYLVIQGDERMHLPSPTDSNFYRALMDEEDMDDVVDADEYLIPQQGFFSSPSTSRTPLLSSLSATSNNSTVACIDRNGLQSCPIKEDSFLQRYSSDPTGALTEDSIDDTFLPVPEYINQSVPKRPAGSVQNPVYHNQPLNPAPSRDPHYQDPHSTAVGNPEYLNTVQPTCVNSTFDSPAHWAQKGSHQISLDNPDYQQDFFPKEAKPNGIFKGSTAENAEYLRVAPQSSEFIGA
Kind of assay: Biochemical EGFR Assay. Details: concentration or dose not given beside the values. On the procedure: This assay measures the in vitro kinase activity of EGFR using ELISA.
1. Corning 96-well Elisa plates (Corning Catalog No. 25805-96).
2. SUMO1 monoclonal anti-EGFR antibody (Biochemistry Lab, SUGEN, Inc.).
3. PBS (Dulbecco's Phosphate-Buffered Saline, Gibco Catalog No. 450-1300EB).
6. A431 cell lysate (Screening Lab, SUGEN, Inc.)
9. Adenosine-5′-triphosphate (ATP, from Equine muscle, Sigma Cat. No. A-5394).
Prepare a 1.0 mM solution in dH2O. This reagent should be made up immediately prior to use and kept on ice.
Prepare a 1.0 M stock solution in dH2O.
11. ATP/MnCl2 phosphorylation mix
This reagent should be prepared immediately before use and kept on ice
12. NUNC 96-well V bottom polypropylene plates (Applied Scientific Cat. No. AS-72092).
13. Ethylenediaminetetraacetic acid (EDTA)
Prepare 200 mM working solution in dH2O. Adjust to pH 8.0 with 10 N NaOH.
14. Rabbit polyclonal anti-phosphotyrosine serum (Biochemistry Lab, SUGEN, Inc.)
15. Goat anti-rabbit IgG peroxidase conjugate (Biosource Cat. No. ALI0404)
16. ABTS (2,2′-azino-bis(3-ethylbenzthiazoline-6-sulfonic acid), Sigma Cat. No. A-1888).
Mix first two ingredients in about 900 ml dH2O, adjust pH to 4.0 with phosphoric acid. Add ABTS, cover, let sit about 0.5 hr., filter. The solution should be kept in the dark at 4° C. until ready to use.
17. Hydrogen peroxide 30% solution (Fisher Cat. No. H325)
Mix 15 ml ABTS solution and 2.0 μl H2O2. Prepare 5 minutes before use.
1. Coat Corning 96 well ELISA plates with 0.5 μg SUMO1 in 100 μl PBS per well, store overnight at 4° C.
2. Remove unbound SUMO1 from wells by inverting plate to remove liquid. Wash 1× with dH2O. Pat the plate on a paper towel to remove excess liquid.
3. Add 150 μl of Blocking Buffer to each well. Incubate for 30 min. at room temperature with shaking.
4. Wash plate 3× with deionized water, then once with TBST. Pat plate on a paper towel to remove excess liquid and bubbles.
5. Dilute lysate in PBS (7 μg lysate/100 μl PBS)
6. Add 100 μl of diluted lysate to each well. Shake at room temperature for 60 min.
7. Wash plates as described in 4, above.
8. Add 120 μl TBS to ELISA plate containing captured EGFR.
9. Dilute test compound 1:10 in TBS in 96-well polypropylene plates (ie. 10 μl compound+90 μl TBS).
10. Add 13.5 μl diluted test compound to ELISA plate.
11. Incubate for 30 minutes while shaking at room temperature.
13. After 5 minutes, stop reaction by adding 16.5 μl of 200 mM EDTA (pH 8.0) to each well, shaking continuously. After the EDTA has been added, shake for 1 min.
14. Wash 4× with deionized water, twice with TBST.
15. Add 100 μl anti-phosphotyrosine (1:3000 dilution in TBST) per well. Incubate 30-45 min. at room temperature, with shaking.
16. Wash as described in 4, above.
17. Add 100 μl Biosource Goat anti-rabbit IgG peroxidase conjugate (1:2000 dilution in TBST) to each well. Incubate 30 min. at room temperature, with shaking.
18. Wash as described in 4, above.
19. Add 100 μl of ABTS/H2O2 solution to each well.
20. Incubate 5 to 10 minutes with shaking. Remove any bubbles.
21. If necessary stop reaction with the addition of 100 μl 0.2 M HCl per well.
22. Read assay on Dynatech MR7000 ELISA reader. Test Filter: 410 nM Reference Filter: 630 nM
With `Cc1c(Br)cc(Br)c2c1C(=Cc1ccc(C#N)cc1)C(=O)N2` [10727/H09], the “Biochem EGFR % Inhibition (P.167)” value was −6.1%. For `Cc1c(Br)cc(Br)c2c1C(=Cc1c[nH]c(=O)[nH]c1=O)C(=O)N2` [10731/H08] the value was −0.5%; for `Cc1[nH]c(C=C2C(=O)Nc3c(Br)cc(Br)c(C)c32)c(Br)c1Br` [10717/H11], 55.6%; for `Cc1c(Br)cc(Br)c2c1C(=CC1C=CCCC1)C(=O)N2` (stereo not shown) [10729/H11], 0.8%. For `CCc1ccc(C=C2C(=O)Nc3c(Br)cc(Br)c(C)c32)s1` [10726/H10] the value was 12.0%. Consider `Cc1ccsc1C=C1C(=O)Nc2c(Br)cc(Br)c(C)c21` [10729/H05], for which the “Biochem EGFR % Inhibition (P.167)” value is −4.4%. Consider `Cc1c(Br)cc(Br)c2c1C(=Cc1ccc(-c3ccccc3Cl)o1)C(=O)N2` [10730/H07], for which the “Biochem EGFR % Inhibition (P.167)” value is reported as −3.2%. With `Cc1cc(C=C2C(=O)Nc3c(Br)cc(Br)c(C)c32)oc1C` [10730/H11], the “Biochem EGFR % Inhibition (P.167)” value came out at 26.4%. For `Cc1c(Br)cc(Br)c2c1C(=Cc1cc(Cl)cc(Br)c1O)C(=O)N2` [10727/H04] the value was 19.2%; for `COc1c(O)ccc(C=C2C(=O)Nc3c(Br)cc(Br)c(C)c32)c1[N+](=O)[O-]` [10733/H11], 7.0%; for `COc1cccc(C=C2C(=O)Nc3c(Br)cc(Br)c(C)c32)c1OC` [10727/H11], −3.5%. In the case of `COc1cccc(O)c1C=C1C(=O)Nc2c(Br)cc(Br)c(C)c21` [10717/H10], the “Biochem EGFR % Inhibition (P.167)” value is listed as 0.5%. Consider `COc1cc(C=C2C(=O)Nc3c(Br)cc(Br)c(C)c32)cc(OC)c1OC` [10730/H04], for which the “Biochem EGFR % Inhibition (P.167)” value was −29.5%. Take `CC(=O)n1cc(C=C2C(=O)Nc3c(Br)cc(Br)c(C)c32)c2ccccc21` [10730/H05]: the “Biochem EGFR % Inhibition (P.167)” value is −20.1%. For `COc1c(C(C)(C)C)cc(C=C2C(=O)Nc3c(Br)cc(Br)c(C)c32)cc1C(C)(C)C` [10733/H04] the value was −24.0%; for `Cc1c(Br)cc(Br)c2c1C(=Cc1cc(C(C)C)c(Oc3ccccc3)c(C(C)C)c1)C(=O)N2` [10732/H04], −0.7%; for `Cc1c(Br)cc(Br)c2c1C(=Cc1ccc(N3CCCC3)cc1)C(=O)N2` [10729/H10], 2.1%. Under `COc1c(C)cc(C=C2C(=O)Nc3c(Br)cc(Br)c(C)c32)cc1C` [10733/H06] stands −10.5%; under `Cc1ccc2occ(C=C3C(=O)Nc4c(Br)cc(Br)c(C)c43)c(=O)c2c1` [10731/H06], −7.8%. For the compound `COc1c([N+](=O)[O-])cc(C=C2C(=O)Nc3c(Br)cc(Br)c(C)c32)cc1C(C)(C)C` [10733/H03], the “Biochem EGFR % Inhibition (P.167)” value was −16.5%.

Regarding `COc1cc(C=C2C(=O)Nc3c(Br)cc(Br)c(C)c32)cc2c1OCO2` [10728/H11], the “Biochem EGFR % Inhibition (P.167)” value is given as −25.6%. For `COc1cc(C=C2C(=O)Nc3c(Br)cc(Br)c(C)c32)cc(OC)c1` [10728/H04] the value was −0.6%. For `Cc1c(Br)cc(Br)c2c1C(=Cc1cc3ccccc3nc1Cl)C(=O)N2` [10730/H08] the value was −15.8%. In the case of `COc1ccc(C=C2C(=O)Nc3c(Br)cc(Br)c(C)c32)c(OC)c1OC` [10730/H02], the “Biochem EGFR % Inhibition (P.167)” value was 12.6%. Under `Cc1c(Br)cc(Br)c2c1C(=Cc1ccc[nH]1)C(=O)N2` [10717/H09] stands 5.4%; under `Cc1c(Br)cc(Br)c2c1C(=Cc1ccccc1OCC(=O)O)C(=O)N2` [10728/H10], −22.4%.

In the case of `Cc1c(Br)cc(Br)c2c1C(=Cc1ccccc1Sc1ccc(Cl)cc1)C(=O)N2` [10727/H05], the “Biochem EGFR % Inhibition (P.167)” value is reported as 0.4%.

Take `COc1cc(Br)cc(C=C2C(=O)Nc3c(Br)cc(Br)c(C)c32)c1O` [10733/H08]: the “Biochem EGFR % Inhibition (P.167)” value stood at 0.3%. Turning to `Cc1c(Br)cc(Br)c2c1C(=Cc1cc(O)ccc1O)C(=O)N2` [10727/H10], the “Biochem EGFR % Inhibition (P.167)” value was 83.6%.

In the case of `Cc1c(Br)cc(Br)c2c1C(=Cc1coc3ccc(C(C)C)cc3c1=O)C(=O)N2` [10731/H05], the “Biochem EGFR % Inhibition (P.167)” value is −3.6%. For `Cc1c(Br)cc(Br)c2c1C(=Cc1cccc(Oc3ccccc3)c1)C(=O)N2` [10729/H06] the value was −10.3%. For `Cc1c(Br)cc(Br)c2c1C(=Cc1ccc3c(c1)Cc1ccccc1-3)C(=O)N2` [10728/H06], the “Biochem EGFR % Inhibition (P.167)” value is listed as −22.8%.

In the case of `Cc1c(Br)cc(Br)c2c1C(=Cc1ccc(Br)cc1)C(=O)N2` [10717/H08], the “Biochem EGFR % Inhibition (P.167)” value is 33.4%. For `COc1c(Cl)cc(C=C2C(=O)Nc3c(Br)cc(Br)c(C)c32)cc1C(C)(C)C` [10732/H09] the value was −7.4%; for `Cc1c(Br)cc(Br)c2c1C(=Cc1cc(I)c(OCc3ccccc3)c(C(C)(C)C)c1)C(=O)N2` [10733/H02], 3.2%; for `Cc1c(Br)cc(Br)c2c1C(=Cc1cc(Br)c(OCc3ccccc3)c(C(C)(C)C)c1)C(=O)N2` [10732/H08], −14.0%. For the compound `Cc1c(Br)cc(Br)c2c1C(=Cc1cc(Cl)c(OCc3ccccc3)c(C(C)(C)C)c1)C(=O)N2` [10732/H10], the “Biochem EGFR % Inhibition (P.167)” value is on record as −21.3%.

As for `COc1cc(OC)c(OC)cc1C=C1C(=O)Nc2c(Br)cc(Br)c(C)c21` [10730/H03], the “Biochem EGFR % Inhibition (P.167)” value is −3.4%. For `COC1CC(C=C2C(=O)Nc3c(Br)cc(Br)c(C)c32)C(OC)O1` (stereo not shown) [10730/H10], the “Biochem EGFR % Inhibition (P.167)” value came to 1.7%. `COc1ccc(OC)c(C=C2C(=O)Nc3c(Br)cc(Br)c(C)c32)c1` [10728/H02]: the “Biochem EGFR % Inhibition (P.167)” value is reported as −36.6%.

`Cc1c(Br)cc(Br)c2c1C(=Cc1cc([N+](=O)[O-])ccc1O)C(=O)N2` [10733/H10]: the “Biochem EGFR % Inhibition (P.167)” value is recorded as −3.1%.

Turning to `COc1ccc(C=C2C(=O)Nc3c(Br)cc(Br)c(C)c32)cc1` [10726/H11], the “Biochem EGFR % Inhibition (P.167)” value amounted to 1.5%. For `COc1ccc2ccccc2c1C=C1C(=O)Nc2c(Br)cc(Br)c(C)c21` [10729/H02] the value was −10.7%; for `Cc1c(Br)cc(Br)c2c1C(=Cc1cc3c(cc1Cl)OCO3)C(=O)N2` [10727/H06], −35.8%; for `Cc1c(Br)cc(Br)c2c1C(=Cc1ccc(Br)o1)C(=O)N2` [10726/H05], 2.2%.

With `Cc1c(Br)cc(Br)c2c1C(=Cc1c(F)cccc1C(F)(F)F)C(=O)N2` [10728/H09], the “Biochem EGFR % Inhibition (P.167)” value is −6.1%. Under `Cc1c(Br)cc(Br)c2c1C(=Cc1coc3ccc([N+](=O)[O-])cc3c1=O)C(=O)N2` [10731/H07] stands −1.7%; under `Cc1c(Br)cc(Br)c2c1C(=CC(c1cccs1)C(F)(F)F)C(=O)N2` (stereo not shown) [10732/H02], 13.0%.

Consider `COc1c(I)cc(C=C2C(=O)Nc3c(Br)cc(Br)c(C)c32)cc1C(C)(C)C` [10732/H11], for which the “Biochem EGFR % Inhibition (P.167)” value is reported as −15.1%.

Take `COc1c(C(C)C)cc(C=C2C(=O)Nc3c(Br)cc(Br)c(C)c32)cc1C(C)C` [10732/H03]: the “Biochem EGFR % Inhibition (P.167)” value is listed as 1.4%. Under `Cc1c(Br)cc(Br)c2c1C(=Cc1cccc(C#N)c1)C(=O)N2` [10727/H08] stands −8.0%; under `CSc1ccc(C=C2C(=O)Nc3c(Br)cc(Br)c(C)c32)cc1` [10729/H04], −4.4%.
